We go through 2 molecules from patent US7629315B2, “Compositions for blocking the inhibitory effect of human CRP on human leptin” (University of Pittsburgh of the Commonwealth System of …, priority 2005, dated 2009).

Test [1] has as its target T1, long-form human leptin receptor, OB-Rb (Homo sapiens, UniProt P48357).
T1 construct: expressed in transfected cells
T1 sequence (P48357 22-1165): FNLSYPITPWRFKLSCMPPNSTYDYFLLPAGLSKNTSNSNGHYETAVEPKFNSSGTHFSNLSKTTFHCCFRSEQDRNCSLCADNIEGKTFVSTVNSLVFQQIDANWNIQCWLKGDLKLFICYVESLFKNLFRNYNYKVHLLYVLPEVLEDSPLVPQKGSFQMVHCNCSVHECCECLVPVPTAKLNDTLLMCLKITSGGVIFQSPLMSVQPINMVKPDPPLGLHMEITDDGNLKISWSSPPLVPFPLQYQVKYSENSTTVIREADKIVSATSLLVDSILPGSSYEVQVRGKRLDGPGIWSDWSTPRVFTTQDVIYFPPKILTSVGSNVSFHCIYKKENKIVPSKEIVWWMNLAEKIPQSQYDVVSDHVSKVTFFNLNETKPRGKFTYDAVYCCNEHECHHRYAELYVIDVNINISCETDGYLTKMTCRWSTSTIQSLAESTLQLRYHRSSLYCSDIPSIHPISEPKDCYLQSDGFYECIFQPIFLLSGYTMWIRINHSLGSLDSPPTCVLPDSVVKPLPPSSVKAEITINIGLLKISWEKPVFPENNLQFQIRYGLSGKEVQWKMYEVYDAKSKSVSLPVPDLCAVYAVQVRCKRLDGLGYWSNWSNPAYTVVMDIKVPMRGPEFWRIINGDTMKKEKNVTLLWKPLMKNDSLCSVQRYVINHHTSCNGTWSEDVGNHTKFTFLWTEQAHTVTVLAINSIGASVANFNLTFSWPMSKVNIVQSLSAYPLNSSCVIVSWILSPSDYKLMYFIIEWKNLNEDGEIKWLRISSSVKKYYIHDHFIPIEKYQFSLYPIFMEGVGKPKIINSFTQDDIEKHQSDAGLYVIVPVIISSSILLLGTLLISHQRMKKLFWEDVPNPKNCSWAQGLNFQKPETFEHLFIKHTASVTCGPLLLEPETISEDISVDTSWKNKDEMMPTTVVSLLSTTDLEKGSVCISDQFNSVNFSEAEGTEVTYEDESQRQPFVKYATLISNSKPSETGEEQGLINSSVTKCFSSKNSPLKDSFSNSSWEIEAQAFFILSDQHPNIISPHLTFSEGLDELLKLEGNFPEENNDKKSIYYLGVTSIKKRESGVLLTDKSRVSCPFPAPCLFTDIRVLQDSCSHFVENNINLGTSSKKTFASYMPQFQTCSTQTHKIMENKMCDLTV
As to the kind of experiment: 125I-leptin binding to HEK293 cells stably transfected with OB-Rb. Particulars: HEK293 cell line stably transfected with OB-Rb; read-out: Kd for leptin and its receptors. On the procedure: 4. Measurement of IC50 for human CRP against human leptin: Human leptin was iodinated with Na^125I using the lodogen method. Briefly, 15 μg of human leptin in 100 mM Phosphate buffer pH 7.5 were incubated with 1 mCi of carrier-free Na^125I (2200 Ci/mmol) in a glass tube containing 50 μg Iodogen. After 10 minute incubation at room temperature, the reaction was stopped with 100 μl 0.1% trifluoroacetic acid (TFA). The reaction mixture was immediately purified by reverse-phase HPLC. The separation employed a 5 minute isocratic step at 20% eluant B in A, followed by two consecutive 30 minute linear gradients from 20 to 50%, then from 50 to 60% eluant B in A (where eluant A is water containing 0.1% TFA and eluant B is acetonitrile containing 0.1% TFA) at a flow rate of 1.5 ml/min. The ^125I-labeled leptin (˜2 ng/ml) was pre-incubated with various concentrations of human CRP in 1 ml of μ-MEM for 30 minute before added to the OBR-expressing HEK293 cells. The incubation would last for 3 hours at 4° C. before the media was aspirated and the cells were dissolved in 0.1N NaOH for scintillation counting.
To examine if human CRP interferes with the binding of human leptin to its receptors, we used a HEK293 cell line stably transfected with the long-form human leptin receptor, OB-Rb. The characterization of this cell line has been reported in earlier studies. M. Friedman-Einat et al., 2003, Regul. Pept. […]

In test [2] the test system is lean and healthy humans. Briefly: Injection of leptin in lean and healthy humans, plasma CRP. It counts as in vivo, human.
Test [3] has as its system mice. As to the kind of experiment: Continuous infusion of leptin in mice, plasma SAP. It counts as in vivo, mouse. The note with it: elevation of serum leptin through continuous infusion in mice.
Test [4] deals with human primary hepatocytes. As to the kind of experiment: Leptin-stimulated CRP expression in human primary hepatocytes in vitro. It is filed as cell-based.
For test [5], the system named is ob/ob mice. As to the kind of experiment: Infusion of human CRP and/or human leptin by osmotic pumps into ob/ob mice. It is filed as in vivo, mouse. On the procedure:
3(a). In vivo assessment of CRP functions: The micro-osmotic pumps (#1007D, DURECT, Cupertino, Calif.) were subcutaneously imbedded in the ob/ob or wild-type mice according to the instructions of the manufacturer. The osmotic pumps were pre-filled with saline, CRP, leptin or leptin plus CRP. Food-intake (24-h), body weight, and body temperature were monitored daily post-surgery. Blood glucose concentrations were measured from the tail-vein blood samples right before and at the end of infusion with a Precision Plus glucose meter (Medisense, Abbot Park, Ill.).
3(b) Assessment of serum leptin insulin, and CRP: Human- and mouse-leptin concentrations were measured with the ELISA kit from CHEMICON (Temecular, Calif.) and R&D Systems (Minneapolis, Minn.), respectively, according to the instructions of the manufacturer. Serum mouse insulin concentrations were determined with an ELISA assay (LINCO Research, St. Charles, Mo.). Human CRP concentrations were also evaluated with an ELISA kit (Alpha Diagnostics International, San Antonio, Tex.).
3(c) Measurement of serum- and tissue-triglycerides: Serum- and tissue-triglycerides were determined with the protocols described in J. N. Huan et al., 2003, J. Biol. Chem. 278, 45638. […]

Test [6] relates to leptin. Briefly: Immunoprecipitation of mouse SAP with leptin. It is filed as binding.
Setting [7] is: human leptin alone, 6-day continuous infusion.

The Kd is the concentration at which binding is half-saturated. Consider “human leptin: recombinant human leptin, adipocyte hormone (SEQ ID NO:4)”, for which, in test [1], the Kd was found to be 1 nM. Besides, in test [2], the “plasma CRP concentrations” value is on record as “leads to elevation of plasma CRP concentrations”. For the same molecule, the “plasma concentrations of SAP” value in test [3] is recorded as “increased plasma concentrations of SAP in mice”. Further, the “expression of CRP” value in test [4] is recorded as “stimulates expression of CRP”. Moreover, in test [5] (setting [7]), the body weight entry was “produced the expected reduction in food-intake and body weight”; the food-intake entry is “produced the expected reduction in food-intake and body weight”. Further, in test [5] (leptin alone), the blood glucose result is given as “lowering”, the hepatic triglyceride result was “lowering”, the plasma insulin entry was “lowering” and the serum triglyceride result is “lowering”.

B1: mouse SAP: mouse pentraxin-like serum amyloid P component structurally similar to CRP (protein)
chain: QTDLKRKVFVFPRESETDHVKLIPHLEKPLQNFTLCFRTYSDLSRSQSLFSYSVKGRDNELLIYKEKVGEYSLYIGQSKVTVRGMEEYLSPVHLCTTWESSSGIVEFWVNGKPWVKKSLQREYTVKAPPSIVLGQEQDNYGGGFQRSQSFVGEFSDLYMWDYVLTPQDILFVYRDSPVNPNILNWQALNYEINGYVVIRPRVWD
Turning to B1, in test [6], the “binding of leptin (immunoprecipitation)” value was “leptin binds to mouse SAP”.
